According to patent US20240368178A1, “IMIDAZOCYCLIC COMPOUND AND APPLICATION THEREOF” (DONGBAO PURPLE STAR (HANGZHOU) BIOPHARMACEUTICAL CO., LTD., priority 2021, published 2024):

Tests used:
[1] = In vivo PK parameter testing in cynomolgus monkeys; design: species or system cynomolgus monkey; details: male cynomolgus monkeys
Procedure: (§1) Male SD rats and male cynomolgus monkeys were used as test animals, and the plasma concentration of the compound was determined and the pharmacokinetic behavior was evaluated after a single oral administration.
Two groups of healthy male cynomolgus monkeys (fasted) were administered by intravenous injection and oral gavage, each group with 2 monkeys. The vehicle was a 20% hydroxypropyl-β-cyclodextrin aqueous solution. The compound to be tested 002 was mixed with the vehicle, then vortexed, and sonicated to prepare clear solutions of 1.0 mg/mL and 2.0 mg/mL. The intravenous injection dose was 1.0 mg/kg, and the oral gavage dose was 2.0 mg/kg. The compound to be tested 003 was mixed with the vehicle, then vortexed, and sonicated to prepare clear solutions of 0.25 mg/mL and 10.0 mg/mL. The intravenous injection dose was 0.5 mg/kg, and the oral gavage dose was 10.0 mg/kg. After administration, the whole blood was collected at the time points of 0.083 hours, 0.25 hours, 0.5 hours, 1.0 hour, 2.0 hours, 4.0 hours, 8.0 hours, 12.0 hours, and 24.0 hours. Plasma was prepared from the whole blood and analyzed for drug concentration by LC-MS/MS. Parameter meaning: Cmax is the maximum plasma concentration; AUC is the exposure; T1/2 is the half-life; Vd is the apparent volume of distribution; Cl is the clearance rate; F % is the oral bioavailability.

[2] = In vivo PK parameter testing in rats; design: species or system SD rat; details: male SD rats
Procedure: as §1
Two groups of healthy rats (fasted) were administered by intravenous injection (IV) and oral gavage (PO), each group with 2 rats. The vehicle was a mixture of 20% PEG400, 10% solutol, and 70% water. After mixing the compound to be tested with the vehicle, the mixture was vortexed and sonicated to prepare clear solutions of 0.2 mg/mL and 0.5 mg/mL. The intravenous injection dose for rats was 1.0 mg/kg, and the oral gavage dose was 5.0 mg/kg. After administration, the whole blood was collected at the time points of 0.083 hours, 0.25 hours, 0.5 hours, 1.0 hour, 2.0 hours, 4.0 hours, 8.0 hours, 12.0 hours, and 24.0 hours. Plasma was prepared from the whole blood and analyzed for drug concentration by LC-MS/MS.

[3] = molecular target: CYP2C19 (Homo sapiens (Human), UniProt P33261); assay: Time-dependent inhibition (TDI) of CYP2C19 in human liver microsomes; format: in vitro ADME
Chain of CYP2C19 (P33261 whole entry): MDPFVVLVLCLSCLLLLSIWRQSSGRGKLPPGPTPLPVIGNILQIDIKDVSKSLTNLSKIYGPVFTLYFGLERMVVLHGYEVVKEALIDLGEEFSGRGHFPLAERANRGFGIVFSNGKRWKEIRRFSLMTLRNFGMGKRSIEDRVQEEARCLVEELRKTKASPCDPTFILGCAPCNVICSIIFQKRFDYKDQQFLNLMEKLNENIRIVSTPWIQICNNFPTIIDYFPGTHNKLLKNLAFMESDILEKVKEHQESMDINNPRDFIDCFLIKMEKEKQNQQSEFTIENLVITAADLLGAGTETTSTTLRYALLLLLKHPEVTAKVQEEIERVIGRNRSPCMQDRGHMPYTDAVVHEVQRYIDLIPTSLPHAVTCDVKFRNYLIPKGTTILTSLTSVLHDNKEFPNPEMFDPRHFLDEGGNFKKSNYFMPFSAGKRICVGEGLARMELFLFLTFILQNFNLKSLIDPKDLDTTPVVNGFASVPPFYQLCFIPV
Procedure: The time-dependent inhibitory effect of the test compound on the activity of human liver microsomal cytochrome P450 isoenzyme CYP2C19 was determined.
The experiment was divided into two groups. In the first group, human liver microsomes (HLM) were used as the incubation system. The test articles with a series of concentrations were added to the incubation system, followed by the addition of a coenzyme factor (NADPH) solution. The preincubation was carried out at 37° C. for 30 minutes. After preincubation, a probe substrate solution was added thereto. After a certain period of incubation, the reaction was terminated. The amount of probe substrate metabolites generated in the incubation solution was determined, and the enzyme activity was calculated. In the second group, human liver microsomes (HLM) were used as the incubation system. The test articles with a series of concentrations were added to the incubation system, followed by the addition of potassium phosphate buffer. The preincubation was carried out at 37° C. for 30 minutes. After preincubation, a mixture of NADPH and the probe substrate was added thereto. After a certain period of incubation, the reaction was terminated. The amount of probe substrate metabolites generated in the incubation solution was determined, and the enzyme activity was calculated. […]
Then, 147.5 μL of human liver microsomal working solution was added to the reaction plate, and the reaction plate was placed on ice for use; at this time, 2.50 μL of the test compound (N=1) and the working solution (N=2) of the positive control inhibitor at various concentrations were added to the corresponding wells, and the corresponding organic solvent was added to the group without inhibitors (test compound or positive inhibitor); the reaction plate was incubated for 10 minutes at 37° C., and then 50.0 μL of NADPH solution or potassium phosphate buffer was added to reaction wells of the first or second group, respectively, to start the reaction; the reaction plate was pre-incubated at 37° C. for 30 minutes; 50.0 μL of the substrate solution or a mixture of NADPH and the substrate was added to the reaction wells of the first or second group, respectively, to start the reaction. 20 minutes later, 250 μL of precooled acetonitrile solution (containing internal standards of 200 ng/mL tolbutamide and labetalol) was added to terminate the reaction; the reaction plate was placed on a shaker and shaken for 10 minutes to mix uniformly; then, the plate was centrifuged for 20 minutes at 4° C. and 4000 rpm; 200 μL of the supernatant was added to 200 μL of water to dilute the sample; the plate was finally sealed and shaken for 10 minutes to mix uniformly; the sample was then analyzed by LC/MS/MS.

[4] = molecular target: Human-GLP-1 receptor (Homo sapiens (Human), UniProt P43220); assay: In vitro cell activity assay (cAMP, HEK293 GLP-1 cells); format: cell-based; details: cAMP detection
Chain of Human-GLP-1 receptor (P43220 24-463): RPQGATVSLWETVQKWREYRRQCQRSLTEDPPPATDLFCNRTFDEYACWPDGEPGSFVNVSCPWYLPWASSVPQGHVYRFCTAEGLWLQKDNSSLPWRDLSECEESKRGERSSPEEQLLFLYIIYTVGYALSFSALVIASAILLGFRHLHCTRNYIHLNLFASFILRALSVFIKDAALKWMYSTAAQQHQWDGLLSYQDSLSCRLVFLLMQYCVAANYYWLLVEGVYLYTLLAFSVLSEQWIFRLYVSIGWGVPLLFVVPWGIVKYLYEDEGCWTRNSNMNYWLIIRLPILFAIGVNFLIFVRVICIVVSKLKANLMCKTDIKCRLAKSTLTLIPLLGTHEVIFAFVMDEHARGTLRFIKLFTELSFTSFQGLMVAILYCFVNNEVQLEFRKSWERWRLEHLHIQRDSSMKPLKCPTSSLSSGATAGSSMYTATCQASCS
Procedure: Experimental Example 1: In Vitro Cell Activity Assay
The host cell HEK293 for GLP-1 was constructed by WuXi AppTec (Shanghai) Co., Ltd.
cAMP Detection Kit, Cisbio (Cat #62AM4PEJ); 1M HEPES, Invitrogen (Cat #15630-106); 1×HBSS, Invitrogen (Cat #14025); BSA, Sigma (Cat #B2064); IBMX, Sigma (Cat #I5879); Exenatide, Hao Yuan (HY-13443A).
The compounds were prepared into a working solution with a concentration of 30 μM using DMSO. In this assay, each sample was used in an amount of 5 μL.
• 24.5 mL of Hanks Buffer Saline Solution (HBSS), final concentration: lx; • 125 μL of HEPES 1M, final concentration: 5 mM; • 333 μL of 7.5% BSA Solution, final concentration: 0.1%; • 25 μL of IBMX 500 mmol/L, final concentration: 0.5 mmol/L.
Preparation of cAMP assay reagent: 250 μL of cAMP-D2 and 250 μL of anti-cAMP cryptate reagent were added to 4 mL of lysis buffer and mixed gently.
The compound to be tested was diluted 3-fold at 10 points with a starting concentration of 30 μM, and the dilution was completed using Bravo.
Exenatide, used as a control compound, was diluted 3-fold at 10 points with a starting concentration of 500 nM, and the dilution was completed using Bravo. […]
• 1) A GLP-1 cell cryopreservation tube was rapidly thawed in a 37° C. water bath. • 2) The cell suspension was transferred to a 15 mL Transfer centrifuge tube and gently rinsed with 10 mL of HBSS. • 3) The centrifuge tube was centrifuged at 1000 rpm for 1 minute at room temperature. • 4) The supernatant was discarded. • 5) The cells at the bottom were gently dispersed, then rinsed with 10 mL of HBSS, centrifuged to sedimentation, and finally resuspended in the experimental buffer. • 6) The cell density and activity were measured using Vi-cell. • 7) The concentration of GLP-1 cells was diluted to 2.0*105/mL with the experimental buffer. • 8) […] of the diluted cell suspension was transferred to the OptiPlate-384 plate. • 9) The plate was incubated at room temperature for 30 minutes. […]
TopSeal-A was removed and the result was read in EnVision.

[5] = tested on: rat hepatocytes; assay: HMS CLint (liver) hepatocyte metabolic stability, rat; format: in vitro ADME
Procedure: (§2) Experimental purpose: to test the metabolic stability of the test sample in human and rat liver cells.
(§3) • (1) test compound (10 mM), reference substance: 7-ethoxycoumarin (30 mM), 7-hydroxycoumarin (reference substance, 30 mM); • mouse hepatocytes with cell viability of 73.8%, supplier Cat No.: BioreclamationlVTM005052; • rat hepatocytes with cell viability of 78.3%, supplier Cat No.: BioreclamationlVTM00005-T; • canine hepatocytes with cell viability of 80.2%, supplier Cat No.: BioreclamationlVTM00205; • monkey liver cells with cell viability of 80.9%, supplier Cat No.: RILD HP—SXH-02M; • human hepatocytes with cell viability of 94.6%, supplier Cat No.: Bioreclamation IVTX008001. • (2) Buffer system:
(§4) Thawing medium: Williams' medium E containing 5% fetal bovine serum, 30% Percoll solution, and other auxiliary materials.
(§5) Incubation medium: Williams' medium E (without phenol red) containing 2 mM L-glutamine and 25 mM 4-(2-hydroxyethyl)-1-piperazineethanesulfonic acid.
(§6) Termination solution: acetonitrile containing 200 ng/mL tolbutamide and labetalol as internal standard. […]
(§7) The residual rates of the test compound and the control compound were determined using the following formula: […]
(§8) The elimination rate constant (k) of the test compound and the control compound in hepatocytes was calculated by plotting the logarithm of the residual rate against time. […]

[6] = tested on: canine hepatocytes; assay: HMS CLint (liver) hepatocyte metabolic stability, dog; format: in vitro ADME
Procedure: as §2, §3, §4, §5, §6, §7, §8

[7] = tested on: monkey liver cells; assay: HMS CLint (liver) hepatocyte metabolic stability, cynomolgus monkey; format: in vitro ADME; details: cynomolgus monkey hepatocytes
Procedure: as §2, §3, §4, §5, §6, §7, §8

[8] = tested on: human hepatocytes; assay: HMS CLint (liver) hepatocyte metabolic stability, human; format: in vitro ADME
Procedure: as §2, §3, §4, §5, §6, §7, §8

[9] = 30 min preincubation with NADPH
[10] = 30 min preincubation without NADPH

IC50 [3, 9] [nM] | IC50 [3, 10] [nM] | EC50 [4] [nM] | HMS Rat [5] [mL/min/kg] | HMS Dog [6] [mL/min/kg] | HMS Cynomolgus monkeys [7] [mL/min/kg] | HMS Human [8] [mL/min/kg] | Compound | other results
29200 | > 50000 | 0.88 | 138.7 | 115.4 | <23.0 | <17.8 | C[C@]1(c2ccc(Cl)cn2)Oc2cccc(C3CCN(Cc4nc5sc(C(=O)O)cc5n4C[C@@H]4CCO4)CC3)c2O1 (single isomer, unassigned) [Compound 002] | F % ([1]; IV 1.0 mg/kg, PO 2.0 mg/kg): 35.3%; Cl ([1]; intravenous 1.0 mg/kg): 0.505 mL/min/kg; Vd ([1]; intravenous 1.0 mg/kg): 0.155 L/kg; AUC (PO) ([1]; oral gavage 2.0 mg/kg): 42.966 µM·h; T1/2 (PO) ([1]; oral gavage 2.0 mg/kg): 11.3 h; F % ([2]; IV 1.0 mg/kg, PO 5.0 mg/kg): 27.1%; Cl ([2]; intravenous 1.0 mg/kg): 12.0 mL/min/kg; Vd ([2]; intravenous 1.0 mg/kg): 0.392 L/kg; AUC (PO) ([2]; oral gavage 5.0 mg/kg): 3.439 µM·h; T1/2 (PO) ([2]; oral gavage 5.0 mg/kg): 1.61 h
> 50000 | > 50000 | 0.51 | 5.1 | 58.7 | 41.6 | 19.4 | C[C@@]1(c2ccc(Cl)cn2)Oc2cccc(N3CCN(Cc4nc5sc(C(=O)O)cc5n4C[C@H]4CCO4)CC3)c2O1 [Compound 003] | F % ([1]; IV 0.5 mg/kg, PO 10.0 mg/kg): 23.6%; Cl ([1]; intravenous 0.5 mg/kg): 2.85 mL/min/kg; Vd ([1]; intravenous 0.5 mg/kg): 0.489 L/kg; AUC (PO) ([1]; oral gavage 10.0 mg/kg): 10.716 µM·h; T1/2 (PO) ([1]; oral gavage 10.0 mg/kg): 8.52 h
– | – | 0.54 | – | – | – | – | C[C@]1(c2ccc(Cl)cn2)Oc2cccc(C3CCN(Cc4nc5sc(C(=O)O)c(F)c5n4C[C@@H]4CCO4)CC3)c2O1 (single isomer, unassigned) [Compound 001] | –
